Test results as given in patent US20060122232A1, “4-Hydroxyfuroic acid derivatives” (DEVELOPMENT CENTER FOR BIOTECHNOLOGY, priority 2004, published 2006).

What follows are molecules tested against T1, human insulin receptor (CHO.IR cells) (Homo sapiens, UniProt P06213) (assay: Cell-based assay for insulin receptor tyrosine kinase activity). Settings: 20 min; CHO.IR cells treated with 100 μM of compound; read-out: reduction in tyrosine kinase activity.
T1 construct: host or cells: CHO.IR cells (CHO)
T1 sequence (P06213 28-758 limits assumed): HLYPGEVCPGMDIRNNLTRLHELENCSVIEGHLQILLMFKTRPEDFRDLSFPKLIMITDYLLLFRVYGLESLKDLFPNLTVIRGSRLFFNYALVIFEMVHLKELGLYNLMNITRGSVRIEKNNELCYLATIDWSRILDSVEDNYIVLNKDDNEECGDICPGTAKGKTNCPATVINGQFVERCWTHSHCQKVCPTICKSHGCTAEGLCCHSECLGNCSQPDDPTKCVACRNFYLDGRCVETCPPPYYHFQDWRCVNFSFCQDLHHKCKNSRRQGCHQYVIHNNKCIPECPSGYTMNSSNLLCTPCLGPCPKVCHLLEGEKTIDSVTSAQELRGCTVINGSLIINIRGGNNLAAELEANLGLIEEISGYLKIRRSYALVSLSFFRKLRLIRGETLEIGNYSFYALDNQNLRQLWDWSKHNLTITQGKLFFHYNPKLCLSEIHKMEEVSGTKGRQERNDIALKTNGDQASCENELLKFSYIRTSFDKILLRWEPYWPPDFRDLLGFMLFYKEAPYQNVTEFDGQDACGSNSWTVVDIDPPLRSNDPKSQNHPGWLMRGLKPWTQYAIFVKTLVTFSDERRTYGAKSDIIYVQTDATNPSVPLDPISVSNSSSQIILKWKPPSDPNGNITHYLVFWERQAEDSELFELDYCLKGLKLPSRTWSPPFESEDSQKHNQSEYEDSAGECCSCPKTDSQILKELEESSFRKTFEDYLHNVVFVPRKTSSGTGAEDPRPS
T1 sequence (P06213 763-1382 limits assumed): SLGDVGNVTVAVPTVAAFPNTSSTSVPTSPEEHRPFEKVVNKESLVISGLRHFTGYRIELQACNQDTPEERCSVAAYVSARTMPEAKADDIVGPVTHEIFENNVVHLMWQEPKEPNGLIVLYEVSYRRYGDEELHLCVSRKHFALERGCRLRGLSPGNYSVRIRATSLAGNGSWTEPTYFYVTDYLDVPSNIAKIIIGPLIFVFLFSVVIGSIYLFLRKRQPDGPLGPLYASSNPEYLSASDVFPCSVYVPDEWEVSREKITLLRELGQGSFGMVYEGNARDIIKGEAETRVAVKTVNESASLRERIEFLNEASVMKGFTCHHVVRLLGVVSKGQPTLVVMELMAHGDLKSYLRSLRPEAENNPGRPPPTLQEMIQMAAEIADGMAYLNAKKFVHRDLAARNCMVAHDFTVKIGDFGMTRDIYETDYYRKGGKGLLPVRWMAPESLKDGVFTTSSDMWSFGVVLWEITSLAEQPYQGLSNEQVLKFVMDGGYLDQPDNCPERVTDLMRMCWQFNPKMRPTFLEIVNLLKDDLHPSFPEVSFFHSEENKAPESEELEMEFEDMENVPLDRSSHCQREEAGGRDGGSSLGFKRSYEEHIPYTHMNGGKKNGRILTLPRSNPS
Description: CHO.IR cells overexpressing human insulin receptor were obtained from Stanford University. Approximately 1.5×10^5 cells were seeded in each well of a 96-well plate containing Hams F12 medium plus 10% fetal calf serum, fungizone, penicillin, and streptomycin. The cells were incubated at 37° C. for approximately 24 hours, allowing cells to reach confluency. The cells were then washed with phosphate buffered saline (PBS) three times and then incubated in serum-free medium at 37° C. for 2 hours. Insulin or test compounds were added to the wells and the cells were incubated for an additional 20 minutes at 37° C. The cells were washed with PBS three times and then lysed in 60 μL/well of a lysis buffer containing 50 mM HEPES, pH 7.4, 1% Triton X-100, 5 mM EDTA, 5 mM EGTA, 20 mM sodium pyrophosphate, 1 mM sodium vanadate, 20 mM sodium fluoride, 1 mg/mL Bacitracin, 150 mM sodium chloride, 2 μg/mL Aprotonin, and 1 mM PMSF. Lysates were transferred to a second 96-well plate pre-coated with monoclonal anti-insulin receptor antibody (0.2 μg/50 μL/well, in 20 mM NaHCO3, pH 9.6). The second plate was incubated at 4° C. for 16 hours to immunoabsorb insulin receptors.
CHO.IR cells were cultured at approximately 1.5×10^5 cells/well (in a 96-well plate) in a Hams F12 medium supplemented with 10% fetal calf serum, fungizone, penicillin, and streptomycin. The cells were incubated at 37° C. for 24 hours, allowing cells to reach confluency. The cells were then washed with PBS three times and then incubated in serum-free medium at 37° C. for 2 hours. Insulin or test compounds were added to the cells and incubated for an additional 20 minutes at 37° C. The cells were washed three times with PBS and lysed in the same 60 μL lysis buffer as mentioned in Example 174. Lysates were transferred to a second 96-well plate pre-coated with monoclonal anti-insulin receptor antibody (under the same conditions as those mentioned in Example 174). Lysates were incubated at 4° C. for 16 hours to immunoabsorb insulin receptors.
20 μL of a kinase reaction mixture (50 mM Hepes, pH 7.6, 150 mM NaCl, 5 mM MgCl2, 5 mM MnCl2, 0.1% Triton x-100, 1 mg/mL poly(Glu:Tyr)(4:1), 2 μCi of carrier-free [γ-^32P]ATP) was added to each well. After reacting at 25° C. for 40 minutes, the reaction mixture was transferred to a Multiscreen pH plate (Millipore, Billerica, Mass.) and unbound ATP was washed away. The insulin receptor tyrosine kinase activity was determined by detecting the radioactivities associated with the wells using a Topcount scintillation counter (Perkin-Elmer, Wellesley, Mass.).
`O=C(O)c1oc(C(=O)c2c[nH]c3c(CCCO)cccc23)c(O)c1-c1c[nH]c2ccccc12` [Compound 9] was tested, and the inhibition at 100 µM was 12 to 53%.
Molecule `O=C(O)c1oc(C(=O)c2c[nH]c3c(CCCCO)cccc23)c(O)c1-c1c[nH]c2ccccc12` [Compound 21] has an inhibition at 100 µM of 12 to 53%.
For `O=C(O)c1oc(C(=O)c2c[nH]c3c(CCCCCO)cccc23)c(O)c1-c1c[nH]c2ccccc12` [Compound 30], the inhibition at 100 µM was 12 to 53%.
Work on `O=C(O)c1sc(C(=O)c2c[nH]c3c(CCCCCO)cccc23)c(O)c1-c1c[nH]c2ccccc12` [Compound 114] yielded an inhibition at 100 µM of 12 to 53%.
`O=C(O)CCc1cccc2c(C(=O)c3oc(C(=O)O)c(-c4c[nH]c5ccccc45)c3O)c[nH]c12` [Compound 170] showed an inhibition at 100 µM of 12 to 53%.
Molecule `CCCCCc1cccc2c(C(=O)c3oc(C(=O)O)c(-c4c[nH]c5ccccc45)c3O)c[nH]c12` [Compound 171] has an inhibition at 100 µM of 12 to 53%.
`O=C(O)CCCCc1cccc2c(C(=O)c3oc(C(=O)O)c(-c4c[nH]c5ccccc45)c3O)c[nH]c12` [Compound 172] was tested, and the inhibition at 100 µM was 12 to 53%.
`O=C(O)c1oc(C(=O)c2c[nH]c3c(CCCC(CO)CO)cccc23)c(O)c1-c1c[nH]c2ccccc12` [Compound 173] was tested, and the inhibition at 100 µM was 12 to 53%.
